The text below walks through data of article PMC4416922, “Measurement of Inositol 1,4,5-Trisphosphate in Living Cells Using an Improved Set of Resonance Energy Transfer-Based Biosensors” (PLoS ONE, 2015).

Common to all, as to experiment: [3H]InsP3 radioligand displacement on purified recombinant protein, Scatchard analysis
Assay [1] has as its target T1, human type-I InsP 3 receptor ligand binding domain (InsP3R-LBD) (Homo sapiens, UniProt Q14643).
T1 construct: gene ITPR1; residues 224-605, mRFP- and 6xHis-tagged

The target in assay [2] is T2, human type-I InsP 3 receptor ligand binding domain (InsP3R-LBD) (Homo sapiens, UniProt Q14643, R269K).
T2 construct: gene ITPR1; residues 224-605, mRFP- and 6xHis-tagged
T2 sequence (Q14643 224-605 R269K): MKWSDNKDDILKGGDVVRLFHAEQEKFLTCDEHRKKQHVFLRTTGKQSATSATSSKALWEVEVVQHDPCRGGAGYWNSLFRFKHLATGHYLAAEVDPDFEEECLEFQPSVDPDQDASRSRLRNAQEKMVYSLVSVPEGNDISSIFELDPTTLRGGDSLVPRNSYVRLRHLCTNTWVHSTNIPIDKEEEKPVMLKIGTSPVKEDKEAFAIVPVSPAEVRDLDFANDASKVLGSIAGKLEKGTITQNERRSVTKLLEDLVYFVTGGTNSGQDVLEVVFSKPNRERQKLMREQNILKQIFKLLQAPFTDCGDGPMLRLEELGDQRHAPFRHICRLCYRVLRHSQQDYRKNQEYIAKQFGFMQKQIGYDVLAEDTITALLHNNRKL

Assay [3] has as its target T3, human type-I InsP 3 receptor ligand binding domain (InsP3R-LBD) (Homo sapiens, UniProt Q14643, R568K).
T3 construct: gene ITPR1; residues 224-605, mRFP- and 6xHis-tagged

Assay [4] deals with T4, human type-I InsP 3 receptor ligand binding domain (InsP3R-LBD) (Homo sapiens, UniProt Q14643, R265K).
T4 construct: gene ITPR1; residues 224-605, mRFP- and 6xHis-tagged
T4 sequence (Q14643 224-605 R265K): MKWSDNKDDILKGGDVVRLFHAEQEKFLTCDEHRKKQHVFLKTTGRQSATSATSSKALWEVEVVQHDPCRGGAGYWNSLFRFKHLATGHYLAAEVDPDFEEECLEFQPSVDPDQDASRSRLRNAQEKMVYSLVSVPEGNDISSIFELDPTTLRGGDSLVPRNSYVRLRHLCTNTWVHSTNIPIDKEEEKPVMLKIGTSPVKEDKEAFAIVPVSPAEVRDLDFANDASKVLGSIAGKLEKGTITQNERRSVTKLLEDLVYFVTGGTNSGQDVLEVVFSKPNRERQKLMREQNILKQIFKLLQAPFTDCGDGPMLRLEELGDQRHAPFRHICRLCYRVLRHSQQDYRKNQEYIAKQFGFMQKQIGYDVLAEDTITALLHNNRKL

T1 sequence (Q14643 224-605): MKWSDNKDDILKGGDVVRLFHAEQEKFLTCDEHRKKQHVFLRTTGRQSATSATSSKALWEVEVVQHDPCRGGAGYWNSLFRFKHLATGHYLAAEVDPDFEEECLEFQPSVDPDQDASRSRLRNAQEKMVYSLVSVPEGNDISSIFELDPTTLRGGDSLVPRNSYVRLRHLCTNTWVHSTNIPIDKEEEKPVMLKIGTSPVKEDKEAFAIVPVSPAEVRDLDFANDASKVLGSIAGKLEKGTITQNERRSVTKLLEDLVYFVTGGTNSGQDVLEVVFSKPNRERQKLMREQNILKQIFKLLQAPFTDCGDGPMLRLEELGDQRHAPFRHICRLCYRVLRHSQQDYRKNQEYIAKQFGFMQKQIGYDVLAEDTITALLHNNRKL
T3 sequence (Q14643 224-605 R568K): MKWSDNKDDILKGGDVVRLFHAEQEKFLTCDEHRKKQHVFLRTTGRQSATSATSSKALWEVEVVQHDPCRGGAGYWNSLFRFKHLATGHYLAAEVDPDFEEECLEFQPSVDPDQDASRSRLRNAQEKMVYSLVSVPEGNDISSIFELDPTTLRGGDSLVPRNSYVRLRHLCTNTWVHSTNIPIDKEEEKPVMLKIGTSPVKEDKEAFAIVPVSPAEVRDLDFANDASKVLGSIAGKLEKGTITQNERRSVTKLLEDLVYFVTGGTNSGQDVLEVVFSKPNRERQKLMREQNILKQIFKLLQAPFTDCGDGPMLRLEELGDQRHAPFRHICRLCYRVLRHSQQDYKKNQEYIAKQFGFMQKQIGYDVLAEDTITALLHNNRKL

A word on the Kd: it is the equilibrium constant for the complex coming apart. As for `O=P(O)(O)O[C@@H]1[C@H](O)[C@H](O)[C@@H](OP(=O)(O)O)[C@H](OP(=O)(O)O)[C@H]1O` [InsP 3], the Kd amounted to 3.04 nM in assay [1], 10.1 nM in assay [2], 5.3 nM in assay [3] and 6.06 nM in assay [4].
